In patent publication US20160151444A1, “METHODS FOR THE PREVENTION OR TREATMENT OF VESSEL OCCLUSION INJURY” (Stealth Peptides International, Inc., priority 2009, published 2016):
Non-standard residues stand in square brackets, D forms with d. No end group written: not given here.

Columns and labels:
[1] = test system: several mammalian cell types; conditions: energy-independent manner; Zhao et al. 2003; cited from earlier work
[2] = test system: New Zealand white rabbits; test: Rabbit model of acute myocardial ischemia and reperfusion (coronary occlusion), infarct size by histomorphometry; type: in vivo
Description: New Zealand white rabbits were used in this study. The rabbits were males and >10 weeks in age. Environmental controls in the animal rooms were set to maintain temperatures of 61° to 72° F. and relative humidity between 30% and 70%. Room temperature and humidity were recorded hourly, and monitored daily. There were approximately 10-15 air exchanges per hour in the animal rooms. Photoperiod was 12-hr light/12-hr dark (via fluorescent lighting) with exceptions as necessary to accommodate dosing and data collection. Routine daily observations were performed. Harlan Teklad, Certified Diet (2030C), rabbit diet was provided approximately 180 grams per day from arrival to the facility. In addition, fresh fruits and vegetables were given to the rabbit 3 times a week.
The peptide D-Arg-2′6′-Dmt-Lys-Phe-NH2 (sterile lyophilized powder) was used as the test article. Dosing solutions were formulated at no more than 1 mg/ml, and were delivered via continuous infusion (IV) at a constant rate (e.g., 50 μL/kg/min). Normal saline (0.9% NaCl) was used as a control.
The test/vehicle articles were given intravenously, under general anesthesia, in order to mimic the expected route of administration in the clinical setting of AMI and PTCA. Intravenous infusion was administered via a peripheral vein using a Kd Scientific infusion pump (Holliston, Mass. 01746) at a constant volume (e.g., 50 μL/kg/min).
The study followed a predetermined placebo and sham controlled design. In short, 10-20 healthy, acclimatized, male rabbits were assigned to one of three study arms (approximately 2-10 animals per group). Arm A (n=10, CTRL/PLAC) includes animals treated with vehicle (vehicle; VEH, IV); Arm B (n=10, treated) includes animals treated with peptide; Arm C (n=2, SHAM) includes sham-operated time-controls treated with vehicle (vehicle; VEH, IV) or peptide.
In all cases, treatments were started approximately 10 min after the onset of a 30 min ischemic insult (coronary occlusion) and continued for up to 3 h following reperfusion. In all cases, cardiovascular function was monitored both prior to and during ischemia, as well as for up to 180 min (3 h) post-reperfusion. The experiments were terminated 3 h post-reperfusion (end of study); irreversible myocardial injury (infarct size by histomorphometery) at this time-point was evaluated, and was the primary-end-point of the study.
General anesthesia was induced intramuscularly (IM) with a ketamine (˜35-50 mg/kg)/xylazine (˜5-10 mg/kg) mixture. A venous catheter was placed in a peripheral vein (e.g., ear) for the administration of anesthetics. In order to preserve autonomic function, anesthesia was maintained with continuous infusions of propofol (˜8-30 mg/kg/hour) and ketamine (˜1.2-2.4 mg/kg/hr). A cuffed tracheal tube was placed via a tracheotomy (ventral midline incision) and used to mechanically ventilate the lungs with a 95% O2/5% CO2 mixture via a volume-cycled animal ventilator (˜40 breaths/minute with a tidal volume of −12.5 ml/kg) in order to sustain PaCO2 values broadly within the physiological range.
Once a surgical plane of anesthesia was reached, either transthoracic or needle electrodes forming two standard ECG leads (e.g., lead II, aVF, V2) were placed. A cervical cut-down exposed a carotid artery, which was isolated, dissected free from the surrounding tissue and cannulated with a dual-sensor high-fidelity micromanometer catheter (Millar Instruments); the tip of this catheter was advanced into the left-ventricle (LV) retrogradely across the aortic valve, in order to simultaneously determine aortic (root, proximal transducer) and left-ventricular (distal transducer) pressures. The carotid cut-down also exposed the jugular vein, which was cannulated with a hollow injection catheter (for blood sampling). Finally, an additional venous catheter was placed in a peripheral vein (e.g., ear) for the administration of vehicle/test articles. […]

[3] = test system: subjects with STEMI and hypertension; test: EMBRACE STEMI trial, subjects with anterior STEMI undergoing PCI; hypertensive subgroup compared; type: in vivo, human
Description: The EMBRACE STEMI study is known in the art (see e.g., Chakrabarti et al., Am Heart J, 165(4):509-514 (2013), the content of which is incorporate by reference in its entirety). Briefly, the EMBRACE STEMI trial is a multicenter, randomized, double-blind, placebo-controlled study. The study design was approved by institutional and national regulatory bodies and ethical committees. Multiple safety reviews were performed by an independent Data and Safety Monitoring Board throughout the course of the trial. All subjects provided written informed consent prior to randomization.
Subjects aged 18 to 85 years with anterior STEMI undergoing first-time percutaneous coronary intervention (PCI) plus stenting with an anticipated time from ischemic symptoms to time of balloon inflation <4 hours, with >0.1 mV ST-segment elevation in at least 2 contiguous precordial leads were enrolled. Major exclusion criteria included a history of prior myocardial infarction (MI), previous heart failure (e.g., known left ventricle ejection fraction (LVEF)<30% prior to the qualifying infarct), and cardiogenic shock.
To assess efficacy in large MIs that had not sustained reperfusion injury, only subjects who met angiographic and post-PCI inclusion criteria were included in the primary analysis population (PAP) (FIG. 7): (1) the presence of a proximal/mid left anterior descending (LAD) occlusion with pre-PCI TIMI flow 0 or 1 and no visible evidence of significant coronary collateral flow; (2) dilation of only the LAD; (3) successful PCI of the LAD with post-PCI TIMI flow >2; and (4) no evidence of a second MI within 72 hours of the initial PCI which would confound the infarct size determination.
Subjects were randomized in a double blind 1:1 fashion to receive either D-Arg-2′,6′-Dmt-Lys-Phe-NH2 of at 0.05 mg/kg/hr or a control placebo by IV injection (Treatment group: n=58; Control group: n=60). D-Arg-2′,6′-Dmt-Lys-Phe-NH2 was administered >15 minutes, but <60 minutes prior to PCI and for 1 hour following reperfusion. Subjects underwent cardiac magnetic resonance imaging (MRI) at 4±1 days and again at 30±7 days post-PCI. Follow-up visits were conducted at discharge, at 30±7 days, 90±14 days, and 6±1.5 months post-PCI.
The primary end point of the study was infarct size, or the area under the curve (AUC) of creatine kinase-MB (CK-MB) enzyme over 72 hours following PCI with the values log transformed and adjusted for the percent of artery distal to the occlusion and duration of symptoms (two variables known to confound the estimation of infarct size).19-21 Secondary end points included the AUCO-72 of troponin I, peak cardiac enzymes, the ratio of the volume of infarcted myocardium (late contrast gadolinium enhancement) to the left ventricular (LV) mass on cardiac Mill at day 4±1, day 30±7, and the change (4) in ratios from day 4±1 to day 30±7, measures of myocardial structure and function (left ventricular ejection fraction (LVEF), left ventricular end systolic volume (LVESV), and left ventricular end diastolic volume (LVEDV)) at day 4±1, day 30±7, and the change (4) in these measures from day 4±1 to day 30±7, TIMI myocardial perfusion grade (TMPG), TIMI flow grade (TFG), corrected TIMI frame count post-PCI and complete ST-segment elevation resolution (>70%) by the Schroder criteria. Laboratory measures of congestive heart failure (CHF) (N-terminal pro-B type natriuretic […]), and renal function (serum creatinine, estimated glomerular filtration rate, cystatin C, and blood urea nitrogen) were also evaluated.
The incidence of the clinical composite endpoint of all-cause death, new-onset CHF beginning >24 hours post-PCI and within the duration of the index hospitalization, and CHF re-hospitalization was also determined through 30±7 days and 6±1.5 months post-PCI. Safety endpoints included treatment emergent adverse events (TEAE). The pharmacokinetic profile of D-Arg-2′6′-Dmt-Lys-Phe-NH2 was determined based on the drug serum concentration. […]

mu-opioid receptor = conditions: stated in the description, no data shown; cited from earlier work
[4] = 30 min ischemia, 180 min reperfusion, IV continuous infusion from 10 min of ischemia, n = 10, means with standard errors
[5] = peptide group versus placebo group, p < 0.05

2′,6′-Dmt-D-Arg-Phe-Lys-NH2
Penetration of the plasma membrane [1]: readily penetrates the plasma membrane

D-Arg-2′,6′-Dmt-Lys-Phe-NH2 [D-Arg-2′6′-Dmt-Lys-Phe-NH2]
Myocardial Area (%) IA/AR (infarcted area to area of risk) [2, 4]: 24.7 ± 4.7%
Myocardial Area (%) IA/LV (infarcted area to left ventricular area) [2, 4]: 16.2 ± 3.4%
Infarct size compared to the control ([2]; induced cardiac ischemia, FIGS. 4A-4E): decreased infarct size
IA/AR, % versus placebo [2, 5]: −32 ± 13%
IA/LV, % versus placebo [2, 5]: −24 ± 16%
Myocardial salvage with shorter treatment ([2]; treatment for less than 3 hours after reperfusion, i.e., 30 min, data not shown): comparable myocardial salvage
Proportion of complete or partial ST segment resolution ([3]; 24 hours post-PCI, hypertensive subjects, control 88.2%, p=0.05): 100%
Mean infarct volume on cardiac MRI ([3]; day 4±1, 0.05 mg/kg/hr IV, control 52.6±30.2, p=0.03): 35.8 ± 22.8 mL
Mean left ventricle (LV) mass ([3]; hypertensive subjects, 0.05 mg/kg/hr IV, control 162.2±52.4, p=0.08): 141.5±53.2 grams
New onset CHF during the first 8 hours post-PCI ([3]; hypertensive subjects, control 11 incidents): 5 incidents
New onset CHF <24 hours post-PCI ([3]; hypertensive subjects, control 15 incidents): 8 incidents
Myocardial edema on cardiac MRI ([3]; hypertensive subjects, control 60.9±20.5, p=0.053): 48.9±22.0
Mu-opioid receptor agonist activity (mu-opioid receptor): does not have mu-opioid receptor agonist activity

F[dR]FK-NH2
Mu-opioid receptor agonist activity (mu-opioid receptor): does not have mu-opioid receptor agonist activity

Tyr-D-Arg-Phe-Lys-NH2
Mu-opioid receptor agonist activity (mu-opioid receptor): has mu-opioid receptor agonist activity
